Data published in US20240358727A1, “MICROSCALE THERMOPHORESIS TO EVALUATE CHANNEL LIPID INTERACTIONS AND METHODS OF TREATING NAV CHANNELS RELATED DISEASES” (Northeastern University, priority 2023, published 2024).
Entries after “also recorded” stand apart in the source; their conditions may differ.

Experiments:
free GFP = target: T1, free GFP (Aequorea victoria, UniProt P42212); assay: MST binding of diC8-PIP2 to free GFP (negative control)
T1 construct: expressed in transfected cells; host or cells: cell lysate
Procedure: The method utilizes cell lysates obtained from transfected/infected cells that are lysed and incubated with varying concentrations of a water-soluble analogue of PIP2 commercially available as diC8-PI(4,5)P2, in a 384 well plate. Other phosphoinositides such as diC8PI(4)P of diC8PI(5)P can also be utilized. After a brief incubation (10-30 mins) samples are loaded onto capillary chips purchased from the company Nanotemper. Samples are run on the Nanotemper Monolith instrument. This instrument is advertised to detect green fluorescent protein (GFP) tagged proteins, however we have also used TFP (teal FP) tagged proteins. The instrument provides a short infra-red laser pulse which produces a short thermal gradient. Protein that is interacting with the lipid migrates differently through this thermal gradient and its movement is evaluated by the fluorescence of the GFP/TFP tag on the protein. Based on the concentration of the dic8-phosphoinositide, this resolves into a sigmoidal relationship that delivers an apparent affinity (Kd) value. A test ligand can be added to this assay at a known concentration that is at or close to its Kd for the channel. A shift in the channel's affinity for PIP2 in this assay can help indicate whether this test compound is a good drug candidate for further biological experiments.
Results. […]

Nav1.5-K1493E = target: T2, Nav1.5-K1493E (Homo sapiens, UniProt Q14524, K1493E); assay: Whole-cell ILATE of Nav1.5-K1493E with CRY2-5ptase; assay type: cell-based; settings: 200 μM diC8-PI(4,5)P2 in pipette
T2 construct: expressed in transfected cells; HEK293T
Description: FIGS. 31A-31D show representative currents from Nav1.5-K1493E showing enhanced ILATE that is further augmented by activation of CRY2-5ptase.
Multiple dysrhythmic disorders are associated with mutations in Nav1.5. Nav1.5-E1784K is the most common variant and is associated with LQT3, BrS, and sinus node dysfunction. E1784K is in the proximal C-terminal domain where it disrupts an interaction with K1493 (DIII-DIV linker) that alters channel gating and increases ILATE. The complementary mutation, K1493E also augments ILATE. […] These findings indicate a potential role for PI(4,5)P2 in the mechanism of, at least some, Nav1.5 disease mutants.

Nav1.5-R1644C = target: T3, Nav1.5-R1644C (Homo sapiens, UniProt Q14524, R1644C); assay: Whole-cell patch-clamp ILATE of Nav1.5-R1644C in HEK293T cells with CRY2-5POCRL; assay type: cell-based
T3 construct: expressed in transfected cells; host or cells: HEK293T
Procedure: This is opposed when by 200 μM diC8-PIP2 in the pipette. Comparisons are Students t-test, *** P<0.01, ****P0.001 for 4-6 cells per group.
Results. Our studies were designed to evaluate PIP2-regulation for Nav1.5 channelopathies from multiple perspectives. Given that there is a lack of structural data to identify where, or how many PIP2 molecules bind to Nav1.5, we performed a docking simulation to identify putative PIP2 binding sites in the open, rat and human Nav1.5 cryoEM structures (PDB: 6UZ3 and 7DTC) (56-58). We observed four potential PIP2 binding sites at the boundary between the inner leaflet of the membrane and the cytoplasm with one at the interface between each voltage sensor and the channel body. In each case, we noted electrostatic and hydrogen bond interactions between the headgroup of PIP2 and multiple disease associated residues. Among these, we elected to perform functional studies on Nav1.5-R1644C, an LQT3 mutant located between the S4 and S5 transmembrane segments of DIV. We expressed wild type Nav1.5 or Nav1.5-R1644C with Nav1β, CIBN-CAAX and CRY2-5POCRL in HEK293T cells and studied ILATE with and without optogenetic dephosphorylation of PIP2. In wild-type Nav1.5, ILATE was 0.25±0.1% of the peak (n=8) whereas in […], ILATE was 1.2±0.2% of peak (n=8, P<0.01, unpaired t-test comparison to WT). Dephosphorylation of PIP2 elevated ILATE in both channels to ˜4% of the peak but did so more rapidly for Nav1.5-R1644C. Thus, WT Nav1.5 ILATE plateaued after 180±15 s of optogenetic dephosphorylation compared to 86±22 s in Nav1.5-R1644C channels (n=8 for both experiments). […] Next, we used the Monolith Nanotemper system to establish a microscale thermophoresis (MST) approach to measure the binding affinity of PIP2 for Nav1.5 channels. MST measures the mobility of the GFP-tagged protein in response to an IR-laser pulse. Ligand binding alters the motion of the target protein, allowing the user to generate a binding curve and extracting a binding constant (Kd) (FIG. 6A). First, we studied GFP-Nav1.5 expressed in HEK293T cells along with Navβ1.
Next, aimed to test the hypothesis that the relationship of PIP2 with the channel in certain disease-associated variants is altered. We employed a variant of Nav1.5 identified in patients with Long QT Syndrome Type 3, Arg1644→C and assessed it sensitivity to the widely used 5P-OCRL construct. We observed a right shift in the G-V curve and an increase in the ILATE over WT conditions as well as a further increase following blue light induction of PIP2 dephosphorylation. We then used the patch pipette to enrich cells expressing these channels with diC8PI(4,5)P2. We observed that the enhanced ILATE observed under control conditions is mitigated by the inclusion of diC8PIP2 in patch pipette while the shift in the G-V is not rescued by the inclusion of diC8PI(4,5)P2 in the pipette.

In the case of `CCCCCCCC(=O)OC[C@H](COP(=O)(O)O[C@@H]1[C@H](O)[C@H](O)[C@@H](OP(=O)(O)O)[C@H](OP(=O)(O)O)[C@H]1O)OC(=O)CCCCCCC` [diC8-PIP2], the Kd (free GFP) is reported as over 800 µM, the “binding of diC8-PIP2 to free GFP” value (free GFP; MST negative control) is reported as “does not bind” and the “effect on Nav1.5-K1493E ILATE” value (Nav1.5-K1493E) is reported as “abolishes; also recorded: opposes”. For the same molecule, the “effect on further increase in ILATE on activation of CRY2-5ptase” value (Nav1.5-K1493E) was “precluded”, the “effect on elevated baseline ILATE” value (Nav1.5-R1644C; 200 μM diC8-PIP2 in pipette) was “ameliorated; also recorded: abolishing; also recorded: decreased” and the “effect on elevation in ILATE following optogenetic stimulation of CRY2-5POCRL” value (Nav1.5-R1644C; 200 μM diC8-PIP2 in pipette) was “opposed”. For the same molecule, the “effect on more rapid rise of ILATE on PIP2 dephosphorylation” value (Nav1.5-R1644C; 200 μM diC8-PIP2 in pipette) was “opposed”, the “effect on elevated baseline ILATE” value (Nav1.5-R1644C; 200 μM diC8-PIP2 in pipette, listed as diC8PIP2) was “mitigated” and the ILATE (Nav1.5-R1644C; 200 μM diC8-PIP2 in pipette, without diC8-PIP2 1.2±0.2) was 0.46±0.1 % of peak INa. The “effect on right shift in the G-V” value (Nav1.5-R1644C; diC8PI(4,5)P2 in pipette) was “not rescued”.
